One test deals with T1, Jak2 (a.a. 828-1132) (Homo sapiens, UniProt O60674).
T1 construct: Jak2 (a.a. 828-1132); His tag (N); made in house; host or cells: insect cells (baculovirus)
As to the kind of experiment: In vitro JAK kinase assay (HTRF, phosphorylation of biotinylated peptide), JAK2. The class given is biochemical. The note with it: 1 mM ATP; Examples 92-162; read-out: JAK2 IC50 (nM) @ 1 mM ATP. Put shortly: (§1)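 IC50 from HTRF detection (Eu-Py20 antibody, SA-APC, 40 min) after EDTA quench. Reactions ran 1 h at room temperature with 500 nM biotinylated peptide in Tris pH 7.8 buffer with NaCl, DTT, BSA; ATP 90 μM for JAK1, 30 μM for JAK2 (Km), or 1 mM. Enzymes: His-tagged catalytic domains from insect cells.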

Test [1] deals with T2, human JAK1 (a.a. 837-1142) (Homo sapiens, UniProt P23458).
T2 construct: The catalytic domains of human JAK1 (a.a. 837-1142); His tag (N); made in house; host or cells: insect cells (baculovirus)
As to the kind of experiment: In vitro JAK kinase assay (HTRF, phosphorylation of biotinylated peptide), JAK1. The class given is biochemical. Conditions: 1 mM ATP; Examples 92-162; read-out: JAK1 IC50 (nM) @ 1 mM ATP. Put shortly:
as §1

A value given as a limit tells only on which side of the number the result lay.

T1 sequence (O60674 828-1132): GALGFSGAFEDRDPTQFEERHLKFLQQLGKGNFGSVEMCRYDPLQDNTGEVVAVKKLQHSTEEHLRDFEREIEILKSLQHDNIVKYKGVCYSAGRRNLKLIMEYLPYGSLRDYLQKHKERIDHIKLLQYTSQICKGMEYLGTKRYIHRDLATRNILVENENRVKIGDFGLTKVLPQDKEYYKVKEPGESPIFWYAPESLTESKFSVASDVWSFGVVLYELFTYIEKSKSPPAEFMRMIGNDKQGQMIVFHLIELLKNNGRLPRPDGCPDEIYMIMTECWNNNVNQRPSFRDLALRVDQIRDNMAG
T2 sequence (P23458 849-1154): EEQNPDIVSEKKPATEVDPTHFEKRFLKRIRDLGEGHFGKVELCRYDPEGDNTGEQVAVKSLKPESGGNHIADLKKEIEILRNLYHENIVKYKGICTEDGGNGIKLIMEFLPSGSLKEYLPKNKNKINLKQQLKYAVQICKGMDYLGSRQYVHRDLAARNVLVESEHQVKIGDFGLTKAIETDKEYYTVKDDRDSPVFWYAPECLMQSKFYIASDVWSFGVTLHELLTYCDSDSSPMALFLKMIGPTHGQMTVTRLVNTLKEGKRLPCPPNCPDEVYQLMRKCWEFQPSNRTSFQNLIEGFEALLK

One may read the IC50 as the concentration that inhibits the measured activity by half. Turning to `N#CCC(CN1CCCN(S(=O)(=O)c2ccccc2Oc2ccccc2)CC1)n1cc(-c2ncnc3[nH]ccc23)cn1` (stereo not shown) [Example 113, 4-{4-[(2-phenoxyphenyl)sulfonyl]-1,4-diazepan-1-yl}-3-[4-(7H-pyrrolo[2,3-d]pyrimidin-4-yl)-1H-pyrazol-1-yl]butanenitrile], the IC50 was above 100 nM on Jak2 (a.a. 828-1132) and 20 to 50 nM in test [1].

Take `COc1ccc(Br)cc1S(=O)(=O)N1CCCN(CC(CC#N)n2cc(-c3ncnc4[nH]ccc34)cn2)CC1` (stereo not shown) [Example 114, 4-{4-[(5-bromo-2-methoxyphenyl)sulfonyl]-1,4-diazepan-1-yl}-3-[4-(7H-pyrrolo[2,3-d]pyrimidin-4-yl)-1H-pyrazol-1-yl]butanenitrile]: the values for the IC50 (at Jak2 (a.a. 828-1132); in test [1]) were 50 to 100 nM and 20 to 50 nM, respectively.

Take `CCC(CN1CCN(S(=O)(=O)c2ccn(C)n2)CC1)n1cc(-c2ncnc3[nH]ccc23)cn1` (stereo not shown) [Example 115, 4-{1-[1-({4-[(1-methyl-1H-pyrazol-3-yl)sulfonyl]piperazin-1-yl}methyl)propyl]-1H-pyrazol-4-yl}-7H-pyrrolo[2,3-d]pyrimidine]: the figures for the IC50 (at Jak2 (a.a. 828-1132); in test [1]) were 20 to 50 nM and below 20 nM, respectively.

With `CCC(CN1CCN(C(=O)c2ccc(F)cc2)CC1)n1cc(-c2ncnc3[nH]ccc23)cn1` (stereo not shown) [Example 116, (4-(2-(4-(7H-pyrrolo[2,3-d]pyrimidin-4-yl)-1H-pyrazol-1-yl)butyl)piperazin-1-yl)(4-fluorophenyl)methanone], the IC50 at Jak2 (a.a. 828-1132) was above 100 nM; in test [1], 20 to 50 nM.

In the case of `CCC(CN1CCN(C(=O)c2ccccc2O)CC1)n1cc(-c2ncnc3[nH]ccc23)cn1` (stereo not shown) [Example 117, 2-[(4-{2-[4-(7H-pyrrolo[2,3-d]pyrimidin-4-yl)-1H-pyrazol-1-yl]butyl}piperazin-1-yl)carbonyl]phenol], the IC50 was in the range of 50 to 100 nM at Jak2 (a.a. 828-1132) and 20 to 50 nM in test [1].

Consider `CCC(CN1CCN(C(=O)c2ccc(F)cc2F)CC1)n1cc(-c2ncnc3[nH]ccc23)cn1` (stereo not shown) [Example 118, (4-(2-(4-(7H-pyrrolo[2,3-d]pyrimidin-4-yl)-1H-pyrazol-1-yl)butyl)piperazin-1-yl)(2,4-difluorophenyl)methanone], for which the figures for the IC50 (on Jak2 (a.a. 828-1132); in test [1]) were 20 to 50 nM and below 20 nM, respectively.

On to `CCC(CN1CCN(C(=O)c2cc(F)ccc2F)CC1)n1cc(-c2ncnc3[nH]ccc23)cn1` (stereo not shown) [Example 119, (4-(2-(4-(7H-pyrrolo[2,3-d]pyrimidin-4-yl)-1H-pyrazol-1-yl)butyl)piperazin-1-yl)(2,5-difluorophenyl)methanone], for which the IC50 fell in the range of 50 to 100 nM at Jak2 (a.a. 828-1132) and 20 to 50 nM in test [1].

For `CCC(CN1CCN(C(=O)c2cccc(F)c2F)CC1)n1cc(-c2ncnc3[nH]ccc23)cn1` (stereo not shown) [Example 120, (4-(2-(4-(7H-pyrrolo[2,3-d]pyrimidin-4-yl)-1H-pyrazol-1-yl)butyl)piperazin-1-yl)(2,3-difluorophenyl)methanone], the IC50 at Jak2 (a.a. 828-1132) lay in the range of 50 to 100 nM; in test [1], 20 to 50 nM.

Turning to `CCC(CN1CCN(C(=O)c2cc(F)cc(F)c2)CC1)n1cc(-c2ncnc3[nH]ccc23)cn1` (stereo not shown) [Example 121, (4-(2-(4-(7H-pyrrolo[2,3-d]pyrimidin-4-yl)-1H-pyrazol-1-yl)butyl)piperazin-1-yl)(3,5-difluorophenyl)methanone], the results for the IC50 (at Jak2 (a.a. 828-1132); in test [1]) were above 100 nM and 20 to 50 nM, respectively.

In the case of `CCC(CN1CCN(C(=O)c2ccc(O)cc2Cl)CC1)n1cc(-c2ncnc3[nH]ccc23)cn1` (stereo not shown) [Example 122, (4-(2-(4-(7H-pyrrolo[2,3-d]pyrimidin-4-yl)-1H-pyrazol-1-yl)butyl)piperazin-1-yl)(2-chloro-4-hydroxyphenyl)methanone], the results for the IC50 (on Jak2 (a.a. 828-1132); in test [1]) were 50 to 100 nM and below 20 nM, respectively.

`CCC(CN1CCN(C(=O)c2ccc(O)cc2F)CC1)n1cc(-c2ncnc3[nH]ccc23)cn1` (stereo not shown) [Example 123, (4-(2-(4-(7H-pyrrolo[2,3-d]pyrimidin-4-yl)-1H-pyrazol-1-yl)butyl)piperazin-1-yl)(2-fluoro-4-hydroxyphenyl)methanone]: the IC50 (on Jak2 (a.a. 828-1132); in test [1]) was below 20 nM in each case.

As for `CCC(CN1CCN(C(=O)c2ccc(Cl)cc2F)CC1)n1cc(-c2ncnc3[nH]ccc23)cn1` (stereo not shown) [Example 124, (4-(2-(4-(7H-pyrrolo[2,3-d]pyrimidin-4-yl)-1H-pyrazol-1-yl)butyl)piperazin-1-yl)(4-chloro-2-fluorophenyl)methanone], the figures for the IC50 (at Jak2 (a.a. 828-1132); in test [1]) were 20 to 50 nM and below 20 nM, respectively.

On to `CCC(CN1CCN(C(=O)c2ccc(F)cc2OC)CC1)n1cc(-c2ncnc3[nH]ccc23)cn1` (stereo not shown) [Example 125, (4-(2-(4-(7H-pyrrolo[2,3-d]pyrimidin-4-yl)-1H-pyrazol-1-yl)butyl)piperazin-1-yl)(4-fluoro-2-methoxyphenyl)methanone], for which the IC50 on Jak2 (a.a. 828-1132) was above 100 nM; in test [1], 20 to 50 nM.

Turning to `CCC(CN1CCN(C(=O)c2cccs2)CC1)n1cc(-c2ncnc3[nH]ccc23)cn1` (stereo not shown) [Example 126, (4-(2-(4-(7H-pyrrolo[2,3-d]pyrimidin-4-yl)-1H-pyrazol-1-yl)butyl)piperazin-1-yl)(thiophen-2-yl)methanone], the IC50 at Jak2 (a.a. 828-1132) is above 100 nM; in test [1], 20 to 50 nM.

On to `CCC(CN1CCN(S(=O)(=O)c2ccccc2)CC1)n1cc(-c2ncnc3[nH]ccc23)cn1` (stereo not shown) [Example 127, 4-(1-(1-(4-(phenylsulfonyl)piperazin-1-yl)butan-2-yl)-1H-pyrazol-4-yl)-7H-pyrrolo[2,3-d]pyrimidine], for which the IC50 on Jak2 (a.a. 828-1132) is 20 to 50 nM; in test [1], below 20 nM.

On to `CCC(CN1CCN(S(=O)(=O)c2ccccc2C#N)CC1)n1cc(-c2ncnc3[nH]ccc23)cn1` (stereo not shown) [Example 128, 2-(4-(2-(4-(7H-pyrrolo[2,3-d]pyrimidin-4-yl)-1H-pyrazol-1-yl)butyl)piperazin-1-ylsulfonyl)benzonitrile], for which the IC50 is 50 to 100 nM on Jak2 (a.a. 828-1132) and below 20 nM in test [1].

Consider `CCC(CN1CCN(S(=O)(=O)c2ccc(C#N)cc2)CC1)n1cc(-c2ncnc3[nH]ccc23)cn1` (stereo not shown) [Example 129, 4-(4-(2-(4-(7H-pyrrolo[2,3-d]pyrimidin-4-yl)-1H-pyrazol-1-yl)butyl)piperazin-1-ylsulfonyl)benzonitrile], for which the IC50 on Jak2 (a.a. 828-1132) was 50 to 100 nM; in test [1], 20 to 50 nM.

Turning to `CCC(CN1CCN(S(=O)(=O)c2ccccc2C(F)(F)F)CC1)n1cc(-c2ncnc3[nH]ccc23)cn1` (stereo not shown) [Example 130, 4-(1-(1-(4-(2-(trifluoromethyl)phenylsulfonyl)piperazin-1-yl)butan-2-yl)-1H-pyrazol-4-yl)-7H-pyrrolo[2,3-d]pyrimidine], the IC50 is 50 to 100 nM on Jak2 (a.a. 828-1132) and below 20 nM in test [1].

With `CCC(CN1CCN(S(=O)(=O)c2cccc(C)n2)CC1)n1cc(-c2ncnc3[nH]ccc23)cn1` (stereo not shown) [Example 131, 4-(1-(1-(4-(6-methylpyridin-2-ylsulfonyl)piperazin-1-yl)butan-2-yl)-1H-pyrazol-4-yl)-7H-pyrrolo[2,3-d]pyrimidine], the results for the IC50 (on Jak2 (a.a. 828-1132); in test [1]) were 20 to 50 nM and below 20 nM, respectively.

For the compound `CCC(CN1CCN(S(=O)(=O)c2ccccc2Cl)CC1)n1cc(-c2ncnc3[nH]ccc23)cn1` (stereo not shown) [Example 132, 4-(1-(1-(4-(2-chlorophenylsulfonyl)piperazin-1-yl)butan-2-yl)-1H-pyrazol-4-yl)-7H-pyrrolo[2,3-d]pyrimidine], the IC50 at Jak2 (a.a. 828-1132) was 20 to 50 nM; in test [1], below 20 nM.

The values are drawn from patent US9249145B2, “Heterocyclic derivatives of pyrazol-4-yl-pyrrolo[2,3-d]pyrimidines as janus kinase inhibitors” (Incyte Holdings Corporation, priority 2009, dated 2016).
